In US20250230193A1, “CYCLIC COMPOUND HAVING SELECTIVE KRAS INHIBITORY EFFECT ON HRAS AND NRAS” (CHUGAI SEIYAKU KABUSHIKI KAISHA, priority 2022, published 2025):
*1 amine or outer side, *2 acyl side, *3 side chain or, on linkers, in order; H or OH if unused. Where a SMILES comes first, the peptide text is derived from it. Bridges are numbered along the chain shown (N, C = ends). [ ]: non-standard residue; d: D form. The star is where a group is joined. hPhe(3,5-F2-4-CF3) = N[C@@H](CCc1cc(F)c(C(F)(F)F)c(F)c1)C(=O)O; hPhe(3-Cl-4-CF3) = N[C@@H](CCc1ccc(C(F)(F)F)c(Cl)c1)C(=O)O; NPrPhe(4-CF3) = CCCN[C@@H](Cc1ccc(C(F)(F)F)cc1)C(=O)O; X16 = O=C([C@@H](N[*:1])C1CC(F)(F)C1)[*:2]; NMeGly(cPent) = CN[C@H](C(=O)O)C1CCCC1; Pro(4,4-F2) = O=C(O)[C@@H]1CC(F)(F)CN1; Ac4c(3,3-Me2) = CC1(C)CC(N)(C(=O)O)C1; Hyp = O=C(O)[C@@H]1C[C@@H](O)CN1; NMeD = CN[C@@H](CC(=O)O)C(=O)O; NMeL = CN[C@@H](CC(C)C)C(=O)O; Morpholide = C1CN(*)CCO1; NMeA = CN[C@@H](C)C(=O)O; Ac5c = NC1(C(=O)O)CCCC1; Aze = O=C(O)[C@@H]1CCN1; Sar = CNCC(=O)O; Propyl = CCC*

How the values were obtained:
[1] = target: GDP-bound NRAS wild-type protein (Homo sapiens, UniProt P01111); assay: Binding to NRAS by surface plasmon resonance (SPR), Single Cycle Kinetics; details: for NRAS/KRAS (ratio of KD value with respect to NRAS to KD value with respect to KRAS) / NRAS/KRAS (ratio of KD value for NRAS to KD value for KRAS): GDP-bound NRAS wild-type vs GDP-bound KRAS wild-type
Sequence of GDP-bound NRAS wild-type protein (P01111 whole entry): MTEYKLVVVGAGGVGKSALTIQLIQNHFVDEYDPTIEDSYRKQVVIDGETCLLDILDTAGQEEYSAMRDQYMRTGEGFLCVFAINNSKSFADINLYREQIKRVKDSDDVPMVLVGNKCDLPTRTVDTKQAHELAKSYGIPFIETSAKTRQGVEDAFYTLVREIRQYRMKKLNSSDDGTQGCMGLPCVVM

[2] = target: GDP-bound HRAS wild-type protein (Homo sapiens, UniProt P01112); assay: Binding to HRAS by surface plasmon resonance (SPR), Single Cycle Kinetics; details: for HRAS/KRAS (ratio of KD value with respect to HRAS to KD value with respect to KRAS) / HRAS/KRAS (ratio of KD value for HRAS to KD value for KRAS): GDP-bound HRAS wild-type vs GDP-bound KRAS wild-type
Sequence of GDP-bound HRAS wild-type protein (P01112 whole entry): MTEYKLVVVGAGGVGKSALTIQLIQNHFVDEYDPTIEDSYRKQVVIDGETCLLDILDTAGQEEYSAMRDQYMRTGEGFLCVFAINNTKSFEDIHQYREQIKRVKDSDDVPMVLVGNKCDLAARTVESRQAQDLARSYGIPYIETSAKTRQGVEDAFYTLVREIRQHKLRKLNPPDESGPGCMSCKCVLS

CCO[C@@H]1C[C@H]2C(=O)NC3(CC(C)(C)C3)C(=O)N(C)[C@@H](C3CCCC3)C(=O)N(C)[C@H](C(=O)N(C)CC)CC(=O)N(C)[C@@H](C(C)C)C(=O)N[C@@H]([C@@H](C)CC)C(=O)N(C)CC(=O)N(C)[C@H]3C/C=C\CCN(C3=O)[C@@H](Cc3ccc(C(F)(F)F)cc3)C(=O)N(C)CC(=O)N[C@@H](CCc3cc(F)c(C(F)(F)F)c(F)c3)C(=O)N2C1 [PP2034]
NRAS/KRAS (ratio of KD value with respect to NRAS to KD value with respect to KRAS) ([1]; SPR): A (a compound having 10 or more and less than 20 is denoted as A)
HRAS/KRAS (ratio of KD value with respect to HRAS to KD value with respect to KRAS) ([2]; SPR): A (a compound having 10 or more and less than 20 is denoted as A)

CC[C@H](C)[C@@H]1NC(=O)[C@H](CC(C)C)N(C)C(=O)C[C@@H](C(=O)N2CCOCC2)N(C)C(=O)[C@H](C2CCC2)N(C)C(=O)C2(CCCC2)NC(=O)[C@@H]2CCCN2C(=O)[C@H](CCc2cc(F)c(C(F)(F)F)c(F)c2)NC(=O)CN(C)C(=O)[C@H](Cc2ccc(C(F)(F)F)cc2)N2CCCCC[C@@H](C2=O)N(C)C(=O)CN(C)C1=O [PP0504]
NRAS/KRAS (ratio of KD value with respect to GDP-bound NRAS wild-type protein to KD value with respect to KRAS) ([1]; SPR): B (a compound having 3 or more and less than 10 is denoted as B)
HRAS/KRAS (ratio of KD value with respect to GDP-bound HRAS wild-type protein to KD value with respect to KRAS) ([2]; SPR): B (a compound having 3 or more and less than 10 is denoted as B)

CCO[C@@H]1C[C@H]2C(=O)NC3(CCC3)C(=O)N(C)[C@@H](C3CCCC3)C(=O)N(C)[C@H](C(=O)N(C)C)CC(=O)N(C)[C@@H](CC3CC3)C(=O)N[C@@H]([C@@H](C)CC)C(=O)N(C)CC(=O)N(C)[C@H]3CCCCN(C3=O)[C@@H](Cc3ccc(C(F)(F)F)cc3)C(=O)N(C)CC(=O)N[C@@H](CCc3cc(F)c(C(F)(F)F)c(F)c3)C(=O)N2C1 [PP0697]
NRAS/KRAS (ratio of KD value with respect to GDP-bound NRAS wild-type protein to KD value with respect to KRAS) ([1]; SPR): C (A compound having a KD ratio of 0.1 or more and less than 3 is denoted as C)
HRAS/KRAS (ratio of KD value with respect to GDP-bound HRAS wild-type protein to KD value with respect to KRAS) ([2]; SPR): C (A compound having a KD ratio of 0.1 or more and less than 3 is denoted as C)

CC[C@H](C)[C@@H]1NC(=O)[C@H](C)N(C)C(=O)C[C@@H](C(=O)N(C)C)N(C)C(=O)[C@H](C2CCCC2)N(C)C(=O)C2(CC(C)(C)C2)NC(=O)[C@@H]2CC(F)(F)CN2C(=O)[C@H](CCc2cc(F)c(C(F)(F)F)c(F)c2)NC(=O)CN(C)C(=O)[C@H](Cc2ccc(C(F)(F)F)cc2)N2CC/C=C\C[C@@H](C2=O)N(C)C(=O)CN(C)C1=O [PP1707]
NRAS/KRAS (ratio of KD value for NRAS to KD value for KRAS) ([1]; SPR): AA (a compound having 20 or more is denoted as AA)
HRAS/KRAS (ratio of KD value for HRAS to KD value for KRAS) ([2]; SPR): A (a compound having 10 or more and less than 20 is denoted as A)

CCCN1C(=O)CN(C)C(=O)CN(C)C(=O)[C@H](C2CC(F)(F)C2)NC(=O)[C@H](CC(C)C)N(C)C(=O)C[C@@H](C(=O)N(C)C)N(C)C(=O)[C@H](C2CCCC2)N(C)C(=O)C2(CCCC2)NC(=O)[C@@H]2CCCN2C(=O)[C@H](CCc2cc(F)c(C(F)(F)F)c(F)c2)NC(=O)CN(C)C(=O)[C@@H]1Cc1ccc(C(F)(F)F)cc1 [PP0748] ([NMeL][X16][Sar][Sar][NPrPhe(4-CF3)][Sar][hPhe(3,5-F2-4-CF3)]P[Ac5c][NMeGly(cPent)][NMeD]-NMe2; lactam N-11)
NRAS/KRAS (ratio of KD value with respect to GDP-bound NRAS wild-type protein to KD value with respect to KRAS) ([1]; SPR): B (a compound having 3 or more and less than 10 is denoted as B)
HRAS/KRAS (ratio of KD value with respect to GDP-bound HRAS wild-type protein to KD value with respect to KRAS) ([2]; SPR): B (a compound having 3 or more and less than 10 is denoted as B)

CCCOC[C@H]1C(=O)N[C@@H]([C@@H](C)CC)C(=O)N(C)CC(=O)N(C)[C@H]2C/C=C\CCN(C2=O)[C@@H](Cc2ccc(C)cc2)C(=O)N(C)CC(=O)N[C@@H](CCc2ccc(Cl)c(Cl)c2)C(=O)N2C[C@H](OCC)C[C@H]2C(=O)NC2(CC(C)(C)C2)C(=O)N(C)[C@@H](CC(C)(C)C)C(=O)N(C)[C@H](C(=O)N(C)C)CC(=O)N1C [PP2716]
NRAS/KRAS (ratio of KD value with respect to GDP-bound NRAS wild-type protein to KD value with respect to KRAS) ([1]; class symbols): A (a compound having 10 or more and less than 20 is denoted as A)
HRAS/KRAS (ratio of KD value with respect to GDP-bound HRAS wild-type protein to KD value with respect to KRAS) ([2]; class symbols): A (a compound having 10 or more and less than 20 is denoted as A)

CCCOC[C@H]1C(=O)N[C@@H]([C@@H](C)CC)C(=O)N(C)CC(=O)N(C)[C@H]2C/C=C\CCN(C2=O)[C@@H](Cc2ccc(C)cc2)C(=O)N(C)CC(=O)N[C@@H](CCc2ccc(C(F)(F)F)c(Cl)c2)C(=O)N2C[C@@H](C)C[C@H]2C(=O)NC2(CC(C)(C)C2)C(=O)N(C)[C@@H](C2CCCC2)C(=O)N(C)[C@H](C(=O)N(C)CC)CC(=O)N1C [PP2467]
NRAS/KRAS (ratio of KD value with respect to NRAS to KD value with respect to KRAS) ([1]; SPR): A (a compound having 10 or more and less than 20 is denoted as A)
HRAS/KRAS (ratio of KD value with respect to HRAS to KD value with respect to KRAS) ([2]; SPR): B (a compound having 3 or more and less than 10 is denoted as B)

CCCO[C@H](C)[C@@H]1NC(=O)[C@H](CC(C)C)N(C)C(=O)C[C@@H](C(=O)N2CCOCC2)N(C)C(=O)[C@H](C2CCCC2)N(C)C(=O)C2(CC(C)(C)C2)NC(=O)[C@@H]2CCCN2C(=O)[C@H](CCc2ccc(C(F)(F)F)c(Cl)c2)NC(=O)CN(C)C(=O)[C@H](Cc2ccc(C(F)(F)F)cc2)N(CCC)C(=O)CN(C)C(=O)CN(C)C1=O [PP1965] ([NMeL]T(Propyl)[Sar][Sar][NPrPhe(4-CF3)][Sar][hPhe(3-Cl-4-CF3)]P[Ac4c(3,3-Me2)][NMeGly(cPent)][NMeD]-Morpholide; lactam N-11)
NRAS/KRAS (ratio of KD value for NRAS to KD value for KRAS) ([1]; SPR): B (a compound having 3 or more and less than 10 is denoted as B)
HRAS/KRAS (ratio of KD value for HRAS to KD value for KRAS) ([2]; SPR): B (a compound having 3 or more and less than 10 is denoted as B)

CCCN1C(=O)[C@@H]2CCN2C(=O)[C@H](C)N(C)C(=O)[C@H]([C@@H](C)CC)NC(=O)[C@H](CC(C)C)N(C)C(=O)C[C@@H](C(=O)N2CCOCC2)N(C)C(=O)[C@H](C2CCCC2)N(C)C(=O)C2(CCCC2)NC(=O)[C@@H]2C[C@@H](OCC)CN2C(=O)[C@H](CCc2ccc(C(F)(F)F)c(Cl)c2)NC(=O)CN(C)C(=O)[C@@H]1Cc1ccc(C(F)(F)F)cc1 [PP0228] ([NMeL]I[NMeA][Aze][NPrPhe(4-CF3)][Sar][hPhe(3-Cl-4-CF3)][Hyp](Et)[Ac5c][NMeGly(cPent)][NMeD]-Morpholide; lactam N-11)
NRAS/KRAS (ratio of KD for GDP-bound NRAS wild-type to KD for KRAS) ([1]; SPR): C (A compound having a KD ratio of 0.1 or more and less than 3 is denoted as C)
HRAS/KRAS (ratio of KD for GDP-bound HRAS wild-type to KD for KRAS) ([2]; SPR): B (a compound having 3 or more and less than 10 is denoted as B)

CCCN1C(=O)CN(C)C(=O)CNC(=O)[C@H]([C@@H](C)CC)NC(=O)[C@H](CC(C)C)N(C)C(=O)C[C@@H](C(=O)N2CCOCC2)NC(=O)[C@H](C2CCCC2)N(C)C(=O)C2(CCCC2)NC(=O)[C@@H]2CC(F)(F)CN2C(=O)[C@H](CCc2ccc(C(F)(F)F)c(Cl)c2)NC(=O)CN(C)C(=O)[C@@H]1Cc1ccc(C(F)(F)F)cc1 [PP0327] ([NMeL]IG[Sar][NPrPhe(4-CF3)][Sar][hPhe(3-Cl-4-CF3)][Pro(4,4-F2)][Ac5c][NMeGly(cPent)]D-Morpholide; lactam N-11)
NRAS/KRAS (ratio of KD for GDP-bound NRAS wild-type to KD for KRAS) ([1]; SPR): B (a compound having 3 or more and less than 10 is denoted as B)
HRAS/KRAS (ratio of KD for GDP-bound HRAS wild-type to KD for KRAS) ([2]; SPR): B (a compound having 3 or more and less than 10 is denoted as B)

CCCN(C)C(=O)[C@@H]1CC(=O)N(C)[C@@H](COC)C(=O)N[C@@H]([C@@H](C)CC)C(=O)N(C)CC(=O)N(C)[C@H]2C/C=C\CCN(C2=O)[C@@H](Cc2ccc(C(F)(F)F)cc2)C(=O)N(C)CC(=O)N[C@@H](CCc2cc(F)c(C(F)(F)F)c(F)c2)C(=O)N2C[C@H](OCC)C[C@H]2C(=O)NC2(CC(F)(F)C2)C(=O)N(C)[C@@H](C2CCCC2)C(=O)N1C [PP1743]
NRAS/KRAS (ratio of KD value for NRAS to KD value for KRAS) ([1]; SPR): AA (a compound having 20 or more is denoted as AA)
HRAS/KRAS (ratio of KD value for HRAS to KD value for KRAS) ([2]; SPR): A (a compound having 10 or more and less than 20 is denoted as A)
